Like-named read-outs stand apart in the source and are kept apart here.
Experiments:
Assay type in all cases: cell-based
[1] = target: T1, human S1P3 receptor (S1PR3) (Homo sapiens, UniProt Q99500); experiment: Intracellular Ca2+ release (method 1), agonist potency, S1P3
T1 construct: host or cells: CHO-K1
Procedure: (§1) Agonistic activity and efficacy of compounds was assessed in recombinant cells using method 1 described below.
(§2) Agonist potency and efficacy were assessed by measurement of intracellular Ca^2+ release. Recombinant CHO-K1 cells (Euroscreen, Brussels, Belgium) expressing human S1PR5, S1PR1, S1PR3 or S1PR4 receptors, aequorin, and GTP binding protein Gq/i5 were cultured using a medium containing nutrient mixture F-12 Ham (Sigma-Aldrich) with 10% FBS, and 100 μg/mL gentamicin and equilibrated at 5% CO2.
(§3) 15,000 cells in 20 μL medium were seeded into Biocoat poly-D-Lysine coated 384 well plates (Becton Dickinson #35-6663) and grown to 95% confluency after 24 h.
(§4) Culture medium was replaced by an assay buffer consisting of HBBS with Ca^2+ and Mg^2+ (Invitrogen #14025-050), 20 mmol/L Hepes (Sigma-Aldrich #H-3375), 2.5 mmol/L probenecid (Sigma-Aldrich #P-8761, and 0.1% BSA (Sigma-Aldrich #A-7030) pH 7.4. The Calcium 5 no-wash FLIPR assay kit (Molecular Devices #5000625) was performed as described in the kit instructions. Cells were incubated with Calcium 5 dye for 1 h at 37° C., 5% CO2 in the dark. After 45 min adaptation to RT assessment of agonist stimulation of intracellular Ca^2+ release was performed by addition of test compounds at various concentrations obtained by serial dilution. Phospho-fingolimod was used as positive control and reference agonist (intrinsic activity 100%).
(§5) Agonism of test compounds at the human S1Px receptors were characterized by the EC50 values (potencies) deduced from a nonlinear 4 parametric logistic curve fit to the measured fluorescence data after normalization to the lower and upper plateaus of the fitted reference agonist's (phospho-fingolimod)effect curve and by their efficacy (Emax) values represented by their maximum achievable effects in % of the reference agonist's efficacy, which is defined as an Emax of 100%.

[2] = target: T2, human S1P1 receptor (S1PR1) (Homo sapiens, UniProt P21453); experiment: Intracellular Ca2+ release (method 1), agonist potency, S1P1; details: CHO-K1 cells expressing human S1PR1
T2 construct: host or cells: CHO-K1
T2 sequence (P21453 whole entry): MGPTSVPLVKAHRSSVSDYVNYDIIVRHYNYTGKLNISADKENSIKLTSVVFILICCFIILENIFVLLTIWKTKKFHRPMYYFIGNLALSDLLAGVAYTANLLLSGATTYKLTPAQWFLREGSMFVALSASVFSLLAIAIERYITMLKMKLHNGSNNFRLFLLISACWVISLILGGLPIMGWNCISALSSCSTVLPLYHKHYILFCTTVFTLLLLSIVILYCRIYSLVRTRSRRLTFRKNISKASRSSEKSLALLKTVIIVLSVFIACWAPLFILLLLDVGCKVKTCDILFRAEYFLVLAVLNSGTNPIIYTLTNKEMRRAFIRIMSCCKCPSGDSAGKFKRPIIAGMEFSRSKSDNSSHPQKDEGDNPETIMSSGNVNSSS
Procedure: as §1, §2, §3, §4, §5

[3] = target: T3, human S1P5 receptor (S1PR5) (Homo sapiens, UniProt Q9H228); experiment: Intracellular Ca2+ release (method 1), agonist potency and efficacy, S1P5; details: for Emax: read-out: hS1P5 EMax
T3 construct: host or cells: CHO-K1
T3 sequence (Q9H228 whole entry): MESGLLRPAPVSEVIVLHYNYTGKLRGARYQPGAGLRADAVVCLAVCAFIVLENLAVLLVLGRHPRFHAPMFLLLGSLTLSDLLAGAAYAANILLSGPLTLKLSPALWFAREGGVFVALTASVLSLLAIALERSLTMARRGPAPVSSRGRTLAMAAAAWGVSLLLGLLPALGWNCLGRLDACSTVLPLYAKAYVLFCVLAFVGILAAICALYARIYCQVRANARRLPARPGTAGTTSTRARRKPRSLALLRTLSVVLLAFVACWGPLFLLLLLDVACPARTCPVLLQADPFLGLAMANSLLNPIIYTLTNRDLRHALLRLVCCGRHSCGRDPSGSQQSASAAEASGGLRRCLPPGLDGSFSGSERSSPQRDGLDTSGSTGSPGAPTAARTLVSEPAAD
Procedure: as §1, §2, §3, §4, §5

[4] = target: T4, human S1P4 receptor (S1PR4) (Homo sapiens, UniProt O95977); experiment: Intracellular Ca2+ release (method 1), agonist potency, S1P4; details: CHO-K1 cells expressing human S1PR4
T4 construct: host or cells: CHO-K1
T4 sequence (O95977 1-384): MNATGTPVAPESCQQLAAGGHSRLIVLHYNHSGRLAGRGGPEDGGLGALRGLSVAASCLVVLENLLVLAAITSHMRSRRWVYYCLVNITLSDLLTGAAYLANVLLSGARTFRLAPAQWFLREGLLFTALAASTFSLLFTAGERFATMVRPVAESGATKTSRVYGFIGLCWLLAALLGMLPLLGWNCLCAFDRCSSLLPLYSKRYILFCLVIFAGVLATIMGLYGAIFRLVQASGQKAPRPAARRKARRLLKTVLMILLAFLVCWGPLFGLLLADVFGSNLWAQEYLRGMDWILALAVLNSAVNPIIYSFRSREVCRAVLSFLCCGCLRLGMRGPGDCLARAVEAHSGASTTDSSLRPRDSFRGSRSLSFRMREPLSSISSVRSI
Procedure: as §1, §2, §3, §4, §5

[5] = CHO-K1 cells expressing human S1PR3
[6] = maximum effect in % of reference agonist phospho-fingolimod (100%)
[7] = recombinant CHO-K1 cells expressing human S1PR5, aequorin, Gq/i5, Ca2+ release, read-out: S1P5 EC50 range
[8] = text value for reference compounds lacking the spiro-linked group, read-out: S1P5 EC50
[9] = value for reference compounds, % of phospho-fingolimod efficacy

T1 sequence (Q99500 whole entry): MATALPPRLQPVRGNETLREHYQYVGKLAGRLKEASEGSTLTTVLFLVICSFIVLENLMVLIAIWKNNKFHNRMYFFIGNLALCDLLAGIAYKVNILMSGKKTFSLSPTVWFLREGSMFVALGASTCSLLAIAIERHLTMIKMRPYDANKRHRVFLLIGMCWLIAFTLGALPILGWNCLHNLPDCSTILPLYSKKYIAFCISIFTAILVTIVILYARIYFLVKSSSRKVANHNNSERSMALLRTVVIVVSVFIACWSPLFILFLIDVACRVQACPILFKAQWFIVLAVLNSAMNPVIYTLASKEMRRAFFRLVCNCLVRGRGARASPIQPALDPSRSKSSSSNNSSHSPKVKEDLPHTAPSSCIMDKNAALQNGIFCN

Row | EC50 [1, 5] [nM] | EC50 [2] [nM] | Emax [3, 6] [%] | EC50 [3, 7] [nM] | EC50 ([4]; cells given as bound) [nM] | EC50 ([2]; cells given as bound) [nM] | EC50 [4] [nM] | EC50 ([1]; value for reference compounds) [nM] | EC50 [3, 8] [nM] | Emax [3, 9] [%] | SMILES
1 |  |  | 50 to 100 | 10 to 100 | > 1000 | > 1000 |  |  |  |  | CCOc1cc(C)c(C#Cc2ccc3c(c2)C2(CC2)CN(CC(C)CC(=O)O)C3)cn1 (stereo not drawn) [Compound 67, 4-(6′-((6-ethoxy-4-methylpyridin-3-yl)ethynyl)-1′H-spiro[cyclopropane-1,4′-isoquinolin]-2′(3′H)-yl)-3-methylbutanoic acid]
2 |  |  | 50 to 100 | 10 to 100 | > 1000 | > 1000 |  |  |  |  | CC(CC(=O)O)CN1Cc2ccc(C#Cc3ccsc3)cc2C2(CC2)C1 (stereo not drawn) [Compound 68, 3-methyl-4-(6′-(thiophen-3-ylethynyl)-1′H-spiro[cyclopropane-1,4′-isoquinolin]-2′(3′H)-yl)butanoic acid]
3 |  |  | > 100 | 10 to 100 | > 1000 | > 1000 |  |  |  |  | CCOc1ccc(C#Cc2ccc3c(c2)C2(CC2)CN(CC(C)CC(=O)O)C3)cc1F (stereo not drawn) [Compound 69, 4-(6′-((4-ethoxy-3-fluorophenyl)ethynyl)-1′H-spiro[cyclopropane-1,4′-isoquinolin]-2′(3′H)-yl)-3-methylbutanoic acid]
4 |  |  | 50 to 100 | 10 to 100 | > 1000 | > 1000 |  |  |  |  | CC(C)Oc1ccc(C#Cc2ccc3c(c2)C2(CC2)CN(C2CC(C(=O)O)C2)C3)nc1 (stereo not drawn) [Compound 70, 3-(6′-((5-isopropoxypyridin-2-yl)ethynyl)-1′H-spiro[cyclopropane-1,4′-isoquinolin]-2′(3′H)-yl)cyclobutanecarboxylic acid]
5 |  |  | 50 to 100 | 10 to 100 | > 1000 | > 1000 |  |  |  |  | O=C(O)C1CC(N2Cc3ccc(C#Cc4ccc(OC(F)(F)F)c(F)c4)cc3C3(CC3)C2)C1 (stereo not drawn) [Compound 71, 3-(6′-((3-fluoro-4-(trifluoromethoxy)phenyl)ethynyl)-1′H-spiro[cyclopropane-1,4′-isoquinolin]-2′(3′H)-yl)cyclobutanecarboxylic acid]
6 |  |  | 50 to 100 | 10 to 100 | > 1000 | > 1000 |  |  |  |  | CCOc1ccc(C#Cc2ccc3c(c2)C2(CC2)CN(C2CC(C(=O)O)C2)C3)cc1F (stereo not drawn) [Compound 72, 3-(6′-((4-ethoxy-3-fluorophenyl)ethynyl)-1′H-spiro[cyclopropane-1,4′-isoquinolin]-2′(3′H)-yl)cyclobutanecarboxylic acid]
7 |  |  | 50 to 100 | 1000 to 10000 | > 1000 | > 1000 |  |  |  |  | CCOc1ccc(C#Cc2ccc3c(c2)C2(CC2)CN(C2CC(C(=O)O)C2)C3)nc1 (stereo not drawn) [Compound 73, 3-(6′-((5-ethoxypyridin-2-yl)ethynyl)-1′H-spiro[cyclopropane-1,4′-isoquinolin]-2′(3′H)-yl)cyclobutanecarboxylic acid]
8 |  |  |  |  |  |  |  | > 1000 | 29 | 60 | O=C(O)CCN1CCc2cc(C#Cc3cccc(F)c3F)ccc2C1 [Reference compound 1, 3-(6-((2,3-difluorophenyl)ethynyl)-3,4-dihydroisoquinolin-2(1H)-yl)propanoic acid, reference compound]
9 |  |  |  |  |  |  |  | > 1000 | 19.2 | 41 | O=C(O)CCN1CCc2cc(C#Cc3c(Cl)cccc3Cl)ccc2C1 [Reference compound 2, 3-(6-((2,6-dichlorophenyl)ethynyl)-3,4-dihydroisoquinolin-2 (1H)-yl)propanoic acid, reference compound]

The remaining lines, values behind:

Row | SMILES | EC50 [1, 5] [nM] | EC50 [2] [nM] | Emax [3, 6] [%] | EC50 [3, 7] [nM] | EC50 ([4]; cells given as bound) [nM] | EC50 ([2]; cells given as bound) [nM] | EC50 [4] [nM] | EC50 ([1]; value for reference compounds) [nM] | EC50 [3, 8] [nM] | Emax [3, 9] [%]
10 | CC(C)c1ccc(C#Cc2ccc3c(c2)C2(CC2)CN(CCCC(=O)O)C3)cc1 [Compound 1, 2′-(3-carboxypropyl)-6′-((4-isopropylphenyl)ethynyl)-2′,3′-dihydro-1′H-spiro[cyclopropane-1,4′-isoquinolin]-2′-ium 2,2,2-trifluoroacetate] | > 1000 | 100 to 1000 | 50 to 100 | < 10 | > 1000 |  |  |  |  | 
11 | CC(C)Oc1ccc(C#Cc2ccc3c(c2)C2(CC2)CN(CCCC(=O)O)C3)cn1 [Compound 2, 4-(6′-((6-isopropoxypyridin-3-yl)ethynyl)-1′H-spiro[cyclopropane-1,4′-isoquinolin]-2′(3′H)-yl)butanoic acid] | > 1000 |  | 50 to 100 | < 10 | > 1000 | > 1000 |  |  |  | 
12 | CCOc1ccc(C#Cc2ccc3c(c2)C2(CC2)CN(CCCC(=O)O)C3)cc1 [Compound 3, 2′-(3-carboxypropyl)-6′-((4-ethoxyphenyl)ethynyl)-2′,3′-dihydro-1′H-spiro[cyclopropane-1,4′-isoquinolin]-2′-ium 2,2,2-trifluoroacetate] | > 1000 | 100 to 1000 | 50 to 100 | < 10 | > 1000 |  |  |  |  | 
13 | O=C(O)CCN1Cc2ccc(C#Cc3cccc(F)c3F)cc2C2(CC2)C1 [Compound 10, 3-(6′-((2,3-Difluorophenyl)ethynyl)-1′H-spiro[cyclopropane-1,4′-isoquinolin]-2′(3′H)-yl)propanoic acid] | > 1000 |  | > 100 | < 10 |  | > 1000 | 10 to 100 |  |  | 
14 | O=C(O)CCN1Cc2ccc(C#Cc3c(Cl)cccc3Cl)cc2C2(CC2)C1 [Compound 11, 3-(6′-((2,6-dichlorophenyl)ethynyl)-1′H-spiro[cyclopropane-1,4′-isoquinolin]-2′(3′H)-yl)propanoic acid] | > 1000 |  | 50 to 100 | < 10 |  | > 1000 | 10 to 100 |  |  | 
15 | CCc1cccc(Cl)c1COc1ccc2c(c1)C1(CC1)CN(CC(=O)O)C2 [Compound 13, 2-(6′-((2-Chloro-6-ethylbenzyl)oxy)-1′H-spiro[cyclopropane-1,4′-isoquinolin]-2′(3′H)-yl)acetic acid] | > 1000 |  | 50 to 100 | < 10 |  | > 1000 | 100 to 1000 |  |  | 
16 | CC(CC(=O)O)CN1Cc2ccc(C#Cc3ccc(OC(C)C)cc3)cc2C2(CC2)C1 (stereo not drawn) [Compound 62, 4-(6′-((4-isopropoxyphenyl)ethynyl)-1′H-spiro[cyclopropane-1,4′-isoquinolin]-2′(3′H)-yl)-3-methylbutanoic acid] |  |  | > 100 | < 10 | > 1000 | > 1000 |  |  |  | 
17 | CCOc1ccc(C#Cc2ccc3c(c2)C2(CC2)CN(CC(C)CC(=O)O)C3)cc1 (stereo not drawn) [Compound 63, 4-(6′-((4-ethoxyphenyl)ethynyl)-1′H-spiro[cyclopropane-1,4′-isoquinolin]-2′(3′H)-yl)-3-methylbutanoic acid] |  |  | 50 to 100 | 10 to 100 | > 1000 | > 1000 |  |  |  | 
18 | CC(CC(=O)O)CN1Cc2ccc(C#Cc3ccc(OC4CCCC4)cc3)cc2C2(CC2)C1 (stereo not drawn) [Compound 64, 4-(6′-((4-(cyclopentyloxy)phenyl)ethynyl)-1′H-spiro[cyclopropane-1,4′-isoquinolin]-2′(3′H)-yl)-3-methylbutanoic acid] |  |  | > 100 | 10 to 100 | > 1000 | > 1000 |  |  |  | 
19 | CC(CC(=O)O)CN1Cc2ccc(C#Cc3ccc(OC(F)(F)F)cc3)cc2C2(CC2)C1 (stereo not drawn) [Compound 65, 3-methyl-4-(6′-((4-(trifluoromethoxy)phenyl)ethynyl)-1′H-spiro[cyclopropane-1,4′-isoquinolin]-2′(3′H)-yl)butanoic acid] |  |  | > 100 | 100 to 1000 | > 1000 | > 1000 |  |  |  | 
20 | CC(CC(=O)O)CN1Cc2ccc(C#Cc3cccc(F)c3F)cc2C2(CC2)C1 (stereo not drawn) [Compound 66, 4-(6′-((2,3-difluorophenyl)ethynyl)-1′H-spiro[cyclopropane-1,4′-isoquinolin]-2′(3′H)-yl)-3-methylbutanoic acid] |  |  | 50 to 100 | 100 to 1000 | > 1000 | > 1000 |  |  |  | 

From patent US20210147381A1, “1,2,3,4-SUBSTITUTED QUINOLINE COMPOUNDS AS SIP MODULATORS” (AbbVie Deutschland GmbH & Co. KG, priority 2017, published 2021)
